# According to patent publication US4554274A, “Nb Quaternary derivatives of ajmaline and isoajmaline, methods and intermediate products in the manufacture of their derivatives and method of using same and pharmaceutical compositions thereof” (priority 1979, dated 1985):
# Structures can show the parent of a compound that is named as a salt. Where two headings read alike, the source gives them in different places.
# Assays:
# [1] = acute toxicity (LD50) in mice; format: in vivo; settings: mouse, in vivo, male NMRI-mice, mortality on 7th day
# Method: The acute toxicity of the compounds is determined in male NMRI-mice (body weight range 18-22 g) after oral (p.o.) and intraperitonal (i.p.) administration. The LD50 is defined as that dose in μmol/kg which causes a 50% mortality rate of the test animals on the 7th day after application. The calculation of the LD50 is carried out by probitanalysis (see L. Cavalli-Sforza, Grundbegriffe der Biometric, Gustav Fischer Verlag Stuttgart (1964)).
# male NMRI-mice = test: minimum symptom dose (Campbell and Richter); format: in vivo; set-up: key: (*): symptoms already indicating toxic area; settings: i.p., changes in behavior in 2 out of 3 mice
# Method: The minimum symptom dose is determined in male NMRI-mice (body weight range 18-22 g) according to the procedure of Campbell and Richter (see D. E. S. Campbell and W. Richter, Acta Pharmacol. Toxicol. 25 (1967), pp. 345-363). The minimum symptom dose is defined as that dose in μmol/kg which after i.p. administration causes changes in behavior in 2 out of 3 mice. The minimum symptom dose is a measure for evaluations undesirable side effects.
# isolated left atria = test: functional refractory period (FRP) and contraction force (CF) in isolated left atria, double stimulus method of Govier; set-up: species or system female guinea pigs; settings: for ratio between contraction force-reducing dose and functional refractory period-prolonging dose: CF/FRP, indication of therapeutic range, 18 min; for EC (FRP prolonged to 125%) / IC25: Cavia porcellus, 0.3 h, isolated left atria of guinea pig, 18 minutes after application; for EC (FRP prolonged to 125%): read-out: concentration prolonging functional refractory period (FRP) to 125% of starting value; for IC25: read-out: concentration reducing contraction force (CF) to 75% of starting value
# Method: The prolongation of the functional refractory period (FRP) and the contraction force (CF) in the isolated left atria of female guinea pigs (albinopirbright-white guinea pigs, body weight range 300-400 g) are determined according to the double stimulus method of Govier (see W. C. Govier, J. Pharmakol, Exp. Ther. 148 (1965) pp. 100-105). The concentrations which are given in the table below are the concentrations in […] which 18 minutes after application leads to a prolongation of the functional refractory period to 125% or respectively to a reduction of the contraction force to 75% of the starting value. Furthermore the ratio between contraction force-reducing dose and functional refractory period-prolonging dose is given. This ratio is an indication of the therapeutic range of the antiarrhythmic effect on the isolated organ (see K. Greef, Verh. Dtsch. Ges. Kreislaufforsch. 35 (1969) pp. 88-97).
# [2] = system: male Wista rats (aconitine); test: aconitine infusion in rats, heart rhythm disruption (Raschak); format: in vivo; settings: 1/20th of the LD50, concurrent aconitine infusion, time difference vs control
# Method: To determine the influence of the active ingredient on male Wista rats (weighing 280 to 350 g), infusion with aconitine according to the method of Raschak is carried out (M. Raschak, Arzneim. Forschung (Drug Research) 25 (4) (1975) pp. 639-641). The results are given as the difference (that is, the difference in time as Δ%) between the active substance and a control sample in bringing about a disruption of heart rhythms (extrasystolic (ES), ventricular tachicardiea (VT), chamber flutter (KF)). In the control sample the active ingredient is replaced by a vehicle such as isotonic NaCl-solution or solution medium. The administration of the active ingredient is in a dosage of 1/20th of the LD50 and a constant concurrent infusion per unit of time of aconitine.
SMILES,"LD50 at 168 h ([1]; ip, i.p., read-out: LD50 i.p.)","LD50 at 168 h ([1]; po, p.o., read-out: LD50 p.o.)",Min. Symptom-dose (male NMRI-mice),ratio between contraction force-reducing dose and functional refractory period-prolonging dose (isolated left atria),EC (FRP prolonged to 125%) (isolated left atria),IC25 (isolated left atria),"Aconitin-Rat, ES (extrasystolic), Δ % [2]","Aconitin-Rat, KF (chamber flutter), Δ % [2]","Aconitin-Rat, VT (ventricular tachycardia), Δ % [2]"
"CCC1C2CC3C4N(C)c5ccc(Br)cc5C45CC(C2C5O)[N+]3(CCN2CCCC2)C1O (stereo not shown) [Example 8.b, Nb-(2-(1-pyrrolidinyl)ethyl)-10-bromoisoajmalinium bishydrogen tartrate]",115 µmol/kg,394 µmol/kg,31 µmol/kg,2.3,0.9 µM,2000 nM,+212%,+129%,> +149%
"CCC1C2CC3C4N(C)c5ccc(Br)cc5C45CC(C2C5O)[N+]3(CC(O)c2ccccc2)C1O (stereo not shown) [Example 21, Nb-(2-hydroxy-2-phenylethyl)-10-bromoisoajmalinium hydrogen tartrate]",250 µmol/kg,2180 µmol/kg,–,0.8,3.8 µM,3200 nM,+89%,+72%,+92%
"CCC1C2CC3C4N(C)c5ccc(Br)cc5C45CC(C2C5O)[N+]3(Cc2ccccc2)C1O (stereo not shown) [Example 16.b, Nb-benzyl-10-bromoisoajmalinium hydrogen tartrate]",483 µmol/kg,2280 µmol/kg,(*),6.1,2.7 µM,16600 nM,+36%,+31%,+30%
"CCC1C2CC3C4N(C)c5ccc(Br)cc5C45CC(C2C5O)[N+]3(CCN2CCCCC2)C1O (stereo not shown) [Example 9.b, Nb-(2-(1-piperidinyl)ethyl)-10-bromoisoajmalinium bishydrogen tartrate]",60 µmol/kg,148 µmol/kg,31 µmol/kg,0.7,2.3 µM,1400 nM,+151%,+95%,+52%
"CCC[N+]12C(O)C(CC)C3CC1C1N(C)c4ccccc4C14CC2C3C4O (stereo not shown) [Neo-Gilurytmal, Nb -propyl ajmalinium hydrogen tartrate, reference compound]",–,–,12 µmol/kg,–,1.8 µM,260 nM,+86%,+50%,+80%
"CCC1C2CC3C4N(C)c5ccc(Br)cc5C45CC(C2C5O)[N+]3(CC)C1O (stereo not shown) [Example 12.b, Nb-ethyl-10-bromo-isoajmalinium hydrogen tartrate]",122 µmol/kg,1430 µmol/kg,21 µmol/kg,0.9,1.5 µM,1400 nM,+52%,+39%,+55%
"CCC1C2CC3C4N(C)c5ccc(Br)cc5C45CC(C2C5O)[N+]3(CCN2CCOCC2)C1O (stereo not shown) [Example 10, Nb-[2-(4-morpholinyl)ethyl]-10-bromoisoajmalinium-chloride]",45 µmol/kg,470 µmol/kg,22 µmol/kg,12.9,0.2 µM,2100 nM,+67%,+43%,+69%
"CCCC[N+]12C(O)C(CC)C3CC1C1N(C)c4ccc(Br)cc4C14CC2C3C4O (stereo not shown) [Example 14.b, Nb-butyl-10-bromoisoajmalinium hydrogen tartrate]",76 µmol/kg,198 µmol/kg,20 µmol/kg,0.7,2 µM,1500 nM,+80%,+88%,+87%
"CCC1C2CC3C4N(C)c5ccc(Br)cc5C45CC(C2C5O)[N+]3(C)C1O (stereo not shown) [Example 11.b, Nb-methyl-10-bromoisoajmalinium hydrogen tartrate]",190 µmol/kg,1290 µmol/kg,88 µmol/kg,1.3,7.2 µM,9000 nM,+85%,+52%,+73%
"CCC1C2CC3C4N(C)c5ccc(Br)cc5C45CC(C2C5O)[N+]3(CCCN(CC)CC)C1O (stereo not shown) [Example 19.b, Nb-diethylaminopropyl-10-bromoisoajmalinium bishydrogen tartrate]",122 µmol/kg,686 µmol/kg,31 µmol/kg,0.5,4.4 µM,2000 nM,+220%,+158%,+180%
"CCC[N+]12C(O)C(CC)C3CC1C1N(C)c4ccc(Br)cc4C14CC2C3C4O (stereo not shown) [Example 13.b, Nb-propyl-10-bromoisoajmalinium hydrogen tartrate]",–,437 µmol/kg,42 µmol/kg,2.4,0.6 µM,1500 nM,+110%,+110%,+130%
"CCCCCCCCCC[N+]12C(O)C(CC)C3CC1C1N(C)c4ccc(Br)cc4C14CC2C3C4O (stereo not shown) [Example 15.b, Nb-decyl-10-bromoisoajmalinium hydrogen tartrate]",72 µmol/kg,> 1440 µmol/kg,287 µmol/kg,4.6,24.8 µM,113000 nM,n.s.,n.s.,n.s.
